A short description of series [1]: Dog plasma protein binding (PPB). In kind it is in vitro ADME. The note with it: dog, serum, pH 7.4. In a few lines:
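Fraction unbound (Fu,plasma) is given as a percentage. It was measured with the method and analysis of the human protein-binding protocol, but using dog serum in place of human serum.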

The subject of a further series is Dogs. In kind it is in vivo. The note with it: 30 nmol/kg s.c.
The subject of a further series is C57BL/6J mice. The experiment in a line: Oral glucose tolerance test (OGTT). In kind it is in vivo. The note with it: 3 nmol/kg s.c., 24 hours before glucose loading. In a few lines:
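Peptide or vehicle given s.c. at 0.1, 0.3, 3 or 10 nmol/kg (peptide-dependent), 24 h before oral 50% dextrose at 5 ml/kg unless stated otherwise. Blood glucose read at 0, 15, 30 and 60 min. % inhibition = (1−(AUC cpd−AUC naïve)/(AUC veh−AUC naïve))×100.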

This note sets out measurements from patent US20230143604A1, “QW DOSING OF GIP RECEPTOR AGONIST PEPTIDE COMPOUNDS AND USES THEREOF” (TAKEDA PHARMACEUTICAL COMPANY LIMITED, priority 2020, published 2023).

Values joined by “and” are separate entries in the source; they are usually repeats but may differ in a detail not shown here. Equal entries are not always repeated. Where two headings read alike, the source gives them in different places.

A word on the fraction unbound: it is free concentration divided by total concentration. A higher fraction unbound goes with weak binding.

As for `CC[C@H](C)[C@H](NC(=O)[C@H](CO)NC(=O)[C@H](Cc1ccc(O)cc1)NC(=O)[C@H](CC(=O)O)NC(=O)[C@H](CO)NC(=O)[C@@H](NC(=O)[C@H](Cc1ccccc1)NC(=O)[C@@H](NC(=O)CNC(=O)[C@H](CCC(=O)O)NC(=O)C(C)(C)NC(=O)[C@H](Cc1ccc(O)cc1)NC)[C@@H](C)O)[C@@H](C)CC)C(=O)N[C@@H](C)C(=O)N[C@@H](CC(C)C)C(=O)N[C@@H](CC(=O)O)C(=O)N[C@@H](CCCNC(=N)N)C(=O)N[C@@H](CCCCNC(=O)CNC(=O)CNC(=O)CNC(=O)CNC(=O)CNC(=O)CCCCCCCCCCCCCCCCC(=O)O)C(=O)N[C@@H](C)C(=O)N[C@@H](CCC(N)=O)C(=O)NC(C)(C)C(=O)N[C@@H](CC(=O)O)C(=O)N[C@@H](Cc1ccccc1)C(=O)N[C@H](C(=O)N[C@@H](CC(N)=O)C(=O)N[C@@H](Cc1c[nH]c2ccccc12)C(=O)N[C@@H](CC(C)C)C(=O)N[C@@H](CC(C)C)C(=O)N[C@@H](C)C(=O)N[C@@H](CCC(N)=O)C(=O)N[C@@H](CO)C(=O)N1CCC[C@H]1C(=O)N[C@@H](CO)C(=O)N[C@@H](CO)C(=O)NCC(=O)N[C@@H](C)C(=O)N1CCC[C@H]1C(=O)N1CCC[C@H]1C(=O)N1CCC[C@H]1C(=O)N[C@@H](CO)C(N)=O)C(C)C` [Compound 50, Me-Y-Aib-E-G-T-F-I-S-D-Y-S-I-A-L-D-R-Km-A-Q-Aib-D-F-V-N-W-L-L-A-Q-S-P-S-S-G-A-P-P-P-S-NH2], the fraction unbound at 30 min, 1000 nmol/L in series [1] was found to be 0.0006. The “% inhibition of emetic events at doses (nmol/kg) shown in dog apomorphine model” value with Dogs (after 8 hrs (upper)) was 82% (30 nmol/kg); with Dogs (after 72 hours (lower)), 86% (30 nmol/kg). The “Oral Glucose Tolerance Test Percent decrease in blood glucose AUC (%) over 60 mins” value in the series on C57BL/6J mice was 89% and 69%.
